The values that follow are results of earlier work, collected in patent US20060105063A1, “Synergic combination of compositions containing aloe vera isolates and their therapeutic application” (priority 2004, published 2006).

Where only a bound is given, the exact number is not on record here.

The subject of series [1] is animals ingesting a diet composed of 20% Fucose.

As for `C[C@H](O)[C@@H](O)[C@@H](O)[C@H](O)C=O` [Fucose], the “Oral dose considered safe” value (healthy 150-pound adult) is reported as at most 34 grams. The “Rate of excretion, mainly in the urine” value (humans) was “approximately 17 micrograms per minute”. The “Time to elimination from the bloodstream” value (oral, after maximum blood levels) is “eight to twelve”. In addition, the “Microscopic examination of liver, kidney, pancreas and sternal bone marrow” value in series [1] (Fucose-treated rats) is “no abnormalities”. For the same compound, the Oral toxicity entry in series [1] (animals ingesting a diet composed of 20% Fucose) was “reduce nerve conduction velocity as well as collagen production”.
